For data set [1], the system named is TTR. Description: TTR editing in HepG2 cells transfected with Spy Cas9 mRNA and dgRNAs (Table 6). The class given is cell-based, human. The following applies: HepG2 cells co-transfected with Spy Cas9 mRNA (SEQ ID NO:2) and dgRNAs. In short, it runs like this:
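Percent editing is the share of sequencing reads at the TTR target locus that carry insertions, deletions or substitutions, measured by Illumina amplicon sequencing aligned to hg38. Samples came from HepG2 cells lipofected first with 100 ng Cas9 mRNA and then with dual-guide RNA (25 nM crRNA/tracer), collected 24–72 h later.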

Data set [2] deals with TTR. Description: TTR editing in primary human hepatocytes electroporated with Spy Cas9 protein loaded with dgRNAs (Table 7). The class given is cell-based. The following applies: dgRNA electroporated with Spy Cas9 protein (RNP). In a few lines: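 Editing efficiency is the fraction of NGS reads carrying insertions, deletions or substitutions at the TTR target, measured on MiSeq amplicons from DNA harvested 24, 48 or 72 h post-delivery. Cas9–dgRNA ribonucleoprotein was nucleofected (P3 buffer, EX-147) into primary human or cyno hepatocytes.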

Data set [3] has as its system TTR. In words: TTR editing in primary human hepatocytes transfected with Spy Cas9 protein (RNP) loaded with dgRNAs (Table 8). The class given is cell-based. The following applies: dgRNA transfected with Spy Cas9 protein (RNP). In a few lines:
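Primary human hepatocytes were lipofected (RNAiMAX) with RNP of Spy Cas9 (10 nM) plus pre-annealed crRNA (10 nM) and trRNA (10 nM) and harvested 24, 48 or 72 h later. Target-site amplicons were sequenced on Illumina MiSeq and aligned to hg38; percent editing = reads with indels or substitutions over total reads.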

Data set [4] relates to TTR. In words: TTR editing in primary human hepatocytes transfected with Spy Cas9 mRNA and dgRNAs (Table 9). The following applies: dgRNA co-transfected with Spy Cas9 mRNA (SEQ ID NO:2). The class given is cell-based. In short, it runs like this: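 PHH sequentially lipofected with Spy Cas9 mRNA (100 ng), then crRNA plus tracrRNA (25 nM each) dual-guide lipoplex. Cells harvested 24, 48 or 72 h post-transfection; TTR target amplicons sequenced on Illumina MiSeq, editing given as percent reads with indels or substitutions over total reads.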

In a further data set the test system is off-target genomic sites. In words: Off-target oligo insertion based assay in HEK293_Cas9 cells, dgRNAs and sgRNAs (Tables 23, 24). The class given is cell-based, human. The following applies: Table 23; TTR dgRNAs in HekCas9 cells, oligo insertion based assay. Here is the method: An oligo insertion based assay (See, e.g., Tsai et al., Nature Biotechnology 33, 187-197; 2015) was used to determine potential off-target genomic sites cleaved by Cas9 targeting TTR. Forty-five dgRNAs from Table 1 (and two control guides with known off-target profiles) were screened in the HEK293 Cas9 cells. The human embryonic kidney adenocarcinoma cell line HEK293 constitutively expressing Spy Cas9 (“HEK293_Cas9”) was cultured in DMEM media supplemented with 10% fetal bovine serum and 500 μg/ml G418. Cells were plated at a density of 30,000 cells/well in a 96-well plate 24 hours prior to transfection. Cells were transfected with Lipofectamine RNAiMAX (ThermoFisher, Cat. 13778150) per the manufacturer's protocol. Cells were transfected with a lipoplex containing individual crRNA (15 nM), trRNA (15 nM), and donor oligo with (10 nM) Lipofectamine RNAiMAX (0.3 μL/well) and OptiMem. Cells were lysed 24 hours post transfection and genomic DNA was extracting using Zymo's Quick gDNA 96 Extraction kit (catalog #D3012) following the manufacturer's recommended protocol. The gDNA was quantified using the Qubit High Sensitivity dsDNA kit (Life Technologies). Libraries were prepared per the previously described method in Tsai et al, 2015 with minor modifications. Sequencing was performed on Illumina's MiSeq and HiSeq 2500. The assay identified potential off-target sites for some of the crRNAs which are plotted in FIG. 2.
Additionally, a subset of the guides was assessed for off-target potential as modified sgRNAs in the Hek_Cas9 cells via the oligo based insertion method described above. The off-target results were plotted in FIG. 4.

In data set [5] the test system is TTR. Description: TTR editing in primary cyno hepatocytes electroporated with Spy Cas9 protein and dgRNAs (Tables 10, 11). The class given is cell-based, cynomolgus monkey. Here is the method:
Primary liver hepatocytes. Primary human liver hepatocytes (PHH) and primary cynomolgus liver hepatocytes (PCH) (Gibco) were cultured per the manufacturer's protocol (Invitrogen, protocol 11.28.2012). In brief, the cells were thawed and resuspended in hepatocyte thawing medium with supplements (Gibco, Cat. CM7000) followed by centrifugation at 100 g for 10 minutes for human and 80 g for 4 minutes for cyno. The supernatant was discarded and the pelleted cells resuspended in hepatocyte plating medium plus supplement pack (Invitrogen, Cat. A1217601 and CM3000). Cells were counted and plated on Bio-coat collagen I coated 96-well plates (ThermoFisher, Cat. 877272) at a density of 33,000 cells/well for human or 60,000 cells/well for cyno (or 65,000 cells/well when assaying effects on TTR protein, described further below). Plated cells were allowed to settle and adhere for 6 or 24 hours in a tissue culture incubator at 37° C. and 5% CO2 atmosphere. After incubation cells were checked for monolayer formation and media was replaced with hepatocyte culture medium with serum-free supplement pack (Invitrogen, Cat. A1217601 and CM4000).
[…] formation was performed prior to electroporation or transfection of Spy Cas9 protein loaded with guide RNAs (RNPs) onto cells. For dual guide (dgRNAs), individual crRNA and trRNA was pre-annealed by mixing equivalent amounts of reagent and incubating at 95° C. for 2 min and cooling to room temperature. Single guide (sgRNAs) were boiled at 95° C. for 2 min and cooling to room temperature. The boiled dgRNA or sgRNA was incubated with Spy Cas9 protein in Optimem for 10 minutes at room temperature to form a ribonucleoprotein (RNP) complex.
For RNP electroporation into primary human and cyno hepatocytes, the cells are thawed and resuspended in Lonza electroporation Primary Cell P3 buffer at a concentration of 2500 cells per μL for human hepatocytes and 3500 cells per μL for cyno hepatocytes. A volume of 20 μL of resuspended cells and 5 μL of RNP are mixed together per guide. 20 μL of the mixture is placed into a Lonza electroporation plate. The cells were electroporated using the Lonza nucleofector with the preset protocol EX-147. Post electroporation, the cells are transferred into a Biocoat plate containing pre-warmed maintenance media and placed in a tissue culture incubator at 37° C. and 5% CO2.
Transfected cells were harvested post-transfection at 24, 48, or 72 hours. The genomic DNA was extracted from each well of a 96-well plate using 50 μL/well BuccalAmp DNA Extraction solution (Epicentre, Cat. QE09050) per manufacturer's protocol. All DNA samples were subjected to PCR and subsequent NGS analyses, as described herein.
To quantitatively determine the efficiency of editing at the target location in the genome, sequencing was utilized to identify the presence of insertions and deletions introduced by gene editing.
Primers were designed around the target site within the gene of interest (e.g. TTR), and the genomic area of interest was amplified.
Additional PCR was performed per the manufacturer's protocols (Illumina) to add chemistry for sequencing. The amplicons were sequenced on an Illumina MiSeq instrument. The reads were aligned to a reference genome (e.g., the human reference genome (hg38), the cynomologus reference genome (mf5), the rat reference genome (rn6), or the mouse reference genome (mm10)) after eliminating those having low quality scores. The resulting files containing the reads were mapped to the reference genome (BAM files), where reads that overlapped the target region of interest were selected and the number of wild type reads versus the number of reads which contain an insertion, substitution, or deletion was calculated.
The editing percentage (e.g., the “editing efficiency” or “percent editing” or “indel frequency”) is defined as the total number of sequence reads with insertions/deletions (“indels”) or substitutions over the total number of sequence reads, including wild type. […]

The mark [6] stands for this setting: primary cyno hepatocytes electroporated with Spy Cas9 protein (RNP) and cyno specific dgRNAs.
Where [7] appears, read: Table 10, primary cyno hepatocytes electroporated with Spy Cas9 protein (RNP) and dgRNAs.

Take “UCCACUCAUUCUUGGCAGGA (tested as dual guide RNA, chemistry not given here) [CR005298]”: the “Avg % Deletion” value is recorded as 21.36% with TTR [1], 17.57% with TTR [2], 10.95% in the data set with TTR [3] and 11.60% in the data set on TTR [4]. Moreover, the “Avg % Edit” value came out at 42.65% with TTR [1], 39.90% in the data set with TTR [2], 32.07% in the data set on TTR [3] and 15.70% with TTR [4]. The “Avg % Insert” value was determined as 21.29% in the data set on TTR [1], 22.37% in the data set with TTR [2], 21.12% with TTR [3] and 4.13% in the data set on TTR [4]. Also, the “# Sites (off-target integration sites detected)” value with off-target genomic sites was found to be 0.
“CCAGUCCAGCGAGGCAGAGG (tested as dual guide RNA, chemistry not given here) [CR005367]”: in the data set on TTR [5] (setting [6]), the “Avg % Deletion” value was 50.26%, the “Avg % Edit” value was 50.79% and the “Avg % Insert” value is listed as 0.53%.
For “CCUCCUCUGCCUCGCUGGAC (tested as dual guide RNA, chemistry not given here) [CR005368]”, in the data set on TTR [5] (setting [6]), the “Avg % Deletion” value was 27.27%, the “Avg % Edit” value was determined as 27.60% and the “Avg % Insert” value is recorded as 0.33%.
In the same order, the values of “ACUUGUCUUCUCUAUACCCA (tested as dual guide RNA, chemistry not given here) [CR005370]” are 62.93%, 63.52% and 0.59%.
In the case of “AGCCGUGGUGGAAUAGGAGU (tested as dual guide RNA, chemistry not given here) [CR005299]”, the “Avg % Deletion” value is recorded as 2.30% in the data set on TTR [1]; 0.35% in the data set on TTR [2]; 0.58% with TTR [3]; 0.60% in the data set with TTR [4]; 0.26% in the data set on TTR [5] (setting [7]). Besides, the “Avg % Edit” value was 38.61% in the data set on TTR [1]; 8.65% in the data set with TTR [2]; 19.37% in the data set with TTR [3]; 9.43% with TTR [4]; 13.48% in the data set on TTR [5] (setting [7]). Further, the “Avg % Insert” value in the data set on TTR [1] came to 36.32%; with TTR [2], 8.30%; in the data set on TTR [3], 18.79%; in the data set with TTR [4] it was 8.93%; in the data set on TTR [5] (setting [7]), 13.23%.
Turning to “ACACAAAUACCAGUCCAGCG (tested as dual guide RNA, chemistry not given here) [CR000689]”, in the data set on TTR [5] (setting [6]), the “Avg % Deletion” value is recorded as 6.30%, the “Avg % Edit” value is reported as 24.41% and the “Avg % Insert” value was determined as 18.11%.
“UAUAGGAAAACCAGUGAGUC (tested as dual guide RNA, chemistry not given here) [CR005305]”: the “Avg % Deletion” value in the data set on TTR [1] was found to be 1.21%; in the data set with TTR [2] it was 0.40%; with TTR [3], 0.34%; in the data set with TTR [4], 1.60%; with TTR [5] (setting [7]), 0.15%. For the same sequence, the “Avg % Edit” value is 13.51% in the data set with TTR [1]; 3.83% in the data set with TTR [2]; 7.07% with TTR [3]; 7.53% in the data set with TTR [4]; 11.28% with TTR [5] (setting [7]). The “Avg % Insert” value with TTR [1] is given as 12.30%; with TTR [2], 3.53%; in the data set with TTR [3], 6.73%; in the data set on TTR [4], 5.93%; with TTR [5] (setting [7]), 11.13%.
For “AAAAGGCUGCUGAUGAGACC (tested as dual guide RNA, chemistry not given here) [CR005372]”, in the data set on TTR [5] (setting [6]), the “Avg % Deletion” value was 17.16%, the “Avg % Edit” value amounted to 17.98% and the “Avg % Insert” value amounted to 0.83%.
“UGUCUGUCUUCUCUCAUAGG (tested as dual guide RNA, chemistry not given here) [CR005307]”: the “Avg % Deletion” value in the data set with TTR [1] was found to be 14.33%; in the data set with TTR [2], 3.00%; in the data set on TTR [3], 8.55%; with TTR [4] it was 9.30%; in the data set on TTR [5] (setting [7]), 2.55%. Further, the “Avg % Edit” value in the data set on TTR [1] turned out to be 22.03%; in the data set on TTR [2], 8.17%; with TTR [3] it was 18.73%; with TTR [4], 12.90%; in the data set on TTR [5] (setting [7]), 4.56%. For the same sequence, the “Avg % Insert” value amounted to 7.70% with TTR [1]; 5.20% in the data set on TTR [2]; 10.18% with TTR [3]; 3.67% in the data set with TTR [4]; 2.01% in the data set on TTR [5] (setting [7]).
